Measurements taken from patent publication US20180036231A1, “PREVENTION OF AND RECOVERY FROM DRUG-INDUCED OTOTOXICITY” (Otonomy, Inc., priority 2011, published 2018).
Where two headings read alike, the source gives them in different places. Each block holds one compound with its values, some of them ahead of it.

Experiments:
[1] = Inner ear (perilymph) pharmacokinetics after intratympanic administration in guinea pigs; conditions: for methylprednisolone peak level in the perilymph: intratympanic administration of hydrogel
Protocol: (§1) Female guinea pigs (Charles River) weighing 200-300 g, of approximately 6-8 weeks of age are used (N=4 per group). Prior to any procedure, animals are anesthetized using a combination of xylazine (10 mg/kg), ketamine (40 mg/kg) and acepromazine (0.75 mg/kg) for up to an hour via the intramuscular route. If needed, an intraoperative booster is administered intraperitoneally representing one-tenth of the original dose. Intratympanic injection—Each animal is positioned so that the head is tilted at an angle to favor injection towards the round window niche. Briefly, under visualization with an operating microscope, 50 μl of formulations comprising 0.2-6% dexamethasone and varying concentrations of P407 are administered to the animals. […] During the procedure and until recovery, animals are placed on a temperature controlled (40° C.) heating pad until consciousness is regained at which time they are returned to the vivarium.
(§2) The skin behind the ear of anesthetized guinea pigs is shaved and disinfected with povidone-iodine. An incision is then made behind the ear, and muscles are carefully retracted from over the bulla. A hole is drilled though the bulla using a dental burr so that the middle ear is exposed and accessible. The cochlea and the round window membrane are visualized under a stereo surgical microscope. A unique microhole is hand drilled through the bony shell of the cochlea (active capsule) adjacent to the round window. Perilymph (5 μl) is then collected using a microcapillary inserted into the cochlear scala tympani.

[2] = In vitro dissolution / mean dissolution time (MDT) of active agent from formulation; format: physicochemical
Protocol: The release profile of compositions suitable for methods described herein is optionally determined using dissolution techniques. In one embodiment, dissolution is performed at 37° C. in snapwells (6.5 mm diameter polycarbonate membrane with a pore size of 0.4 μm), 0.2 mL of a gel formulation described herein (e.g., a gel formulation of Example 1) is placed into snapwell and left to harden, then 0.5 mL buffer is placed into reservoir and shaken using a Labline orbit shaker at 70 rpm. Samples are taken every hour (0.1 mL withdrawn and replace with warm buffer). Samples are analyzed for active agent concentration by UV at 245 nm against an external calibration standard curve. Pluronic concentration is analyzed at 624 nm using the cobalt thiocyanate method. Relative rank-order of mean dissolution time (MDT) as a function of % P407 is determined. […] A non-linear relationship indicates release of active agent via a combination of diffusion and/or polymer gel degradation.
The MDT is inversely proportional to the release rate of an active agent from a composition described herein. Experimentally, the released active agent is optionally fitted to the Korsmeyer-Peppas equation: […]
where Q is the amount of active agent released at time t, Qα is the overall released amount of active agent, k is a release constant of the nth order, n is a dimensionless number related to the dissolution mechanism and b is the axis intercept, characterizing the initial burst release mechanism wherein n=1 characterizes an erosion controlled mechanism. The mean dissolution time (MDT) is the sum of different periods of time the drug molecules stay in the matrix before release, divided by the total number of molecules and is optionally calculated by: […]
In alternate embodiments, samples are analyzed using the method described by Li Xin-Yu paper [Acta Pharmaceutica Sinica 2008, 43(2):[…]] and Rank-order of mean dissolution time (MDT) as a function of % P407 is determined.

[3] = test system: Cisplatin induced hearing loss; assay: Cisplatin induced ototoxicity model, intratympanic injection, hearing by ABR; format: in vivo, guinea pig
Protocol: Intratympanic injection of a formulation of Example 1 is administered the day before cisplatin administration. The lower right quadrant of the abdomen is shaved 1 inch and swabbed with alcohol. A tiny (2-3 mm) incision is made on the abdomen and a 21 G blunt needle is used to penetrate the abdominal wall and into the intraperitoneal cavity. The needle will be connected to an infusion bag containing cisplatin for a slow infusion of 15-30 minutes in the range of 5-15 mg/kg. The incision site is closed using sterile staples. Animals will be placed on a warming pad during the infusion and while recovering. In addition, animals receive twice daily IP injection of saline solution for 3 days to prevent nephrotoxicity.
The hearing of the animal is tested by recording the brainstem activity in response to a known auditory stimulus. (ABR: Auditory Brainstem Response) at various time points. This measurement is performed under general anesthesia. During the procedure the animal is placed on a heating pad (40° C.) in a sound proof booth and an earphone is fitted loosely into one ear at a time. Three subcutaneous needle electrodes are used to measure the brainstem activity. […] The recording then takes place, where the audio stimulus is applied at different frequencies and hearing thresholds, and the brainstem activity recorded.

[4] = test system: noise induced hearing loss; assay: Acoustic trauma / noise induced hearing loss model, intratympanic injection, hearing by ABR; format: in vivo, guinea pig; conditions: thermoreversible gel formulation, prophylactic intratympanic administration
Protocol: The hearing of the animal is tested by recording the brainstem activity in response to a known auditory stimulus. (ABR: Auditory Brainstem Response) at various time points. This measurement is performed under general anesthesia. During the procedure the animal is placed on a heating pad (40° C.) in a sound proof booth and an earphone is fitted loosely into one ear at a time. Three subcutaneous needle electrodes are used to measure the brainstem activity. One is placed behind the ear with the earphone, one on the vertex of the skull and one in the hindleg. The recording then takes place, where the audio stimulus is applied at different frequencies and hearing thresholds, and the brainstem activity recorded.
Following the procedure described in Example 9, a dexamethasone formulation is administered to guinea pigs prior to exposure to acoustic trauma. Hearing is evaluated as described in Example 8 above.
Following the procedure described in Example 9, a SP600125 formulation is administered to guinea pigs prior to exposure to acoustic trauma. Hearing is evaluated as described in Example 9 above.

[5] = female, guinea pig, in vivo
Protocol: as §1, §2

[6] = intratympanic administration in hydrogel vehicle

Compound: CC#C[C@]1(O)CC[C@H]2[C@@H]3CCC4=CC(=O)CCC4=C3[C@@H](c3ccc(N(C)C)cc3)C[C@@]21C [Mifepristone]
effect on dexamethasone gel protection against acute cisplatin ototoxicity ([3]; 6.0% mifepristone + 6.0% dexamethasone gel, intratympanic, one day before cisplatin 12 mg/kg): antagonizes dexamethasone gel protection

Compound: O=C1c2ccccc2-c2n[nH]c3cccc1c23 [SP600125, anthra[1,9-cd]pyrazol-6(2H)-one]
protection against acoustic trauma / prevention of hearing loss [4]: preventing hearing loss due to acoustic trauma

Compound: IGF-1: insulin-like growth factor, trophic agent/growth factor (PeproTech)
protection against acoustic trauma / prevention of hearing loss [4]: protects against acoustic trauma

Compound: CC(=O)OCC(=O)[C@@]1(O)[C@H](C)C[C@H]2[C@@H]3CCC4=CC(=O)C=C[C@]4(C)[C@@]3(F)[C@@H](O)C[C@@]21C [DA, Dexamethasone acetate]
inner ear exposure, dexamethasone in perilymph (AUC) [5]: 84 to 359 µg·h/mL | residence time in inner ear compartment (MRT) [5]: 17 to 82 h

Further lines, with some results ahead:

methylprednisolone peak level in the perilymph [1]: 19.2 µg/mL | decline of perilymph levels after peak (in words) ([1]; intratympanic hydrogel): decreased slowly over 10 days
Compound: C[C@H]1C[C@@H]2[C@H]([C@@H](O)C[C@@]3(C)[C@H]2CC[C@]3(O)C(=O)CO)[C@@]2(C)C=CC(=O)C=C12 [MP, methylprednisolone]

MDT (mean dissolution time) ([2]; 17% Poloxamer 407 formulation): about 3 h | MDT (mean dissolution time) ([2]; aqueous solution): 0.3 h | inner ear exposure, dexamethasone in perilymph (AUC) [1, 6]: 28 to 57 µg·h/mL | residence time in inner ear compartment (MRT) [1, 6]: 4 to 7 h
Compound: C[C@@H]1C[C@H]2[C@@H]3CCC4=CC(=O)C=C[C@]4(C)[C@@]3(F)[C@@H](O)C[C@]2(C)[C@@]1(O)C(=O)COP(=O)([O-])[O-].[Na+].[Na+] [DSP]
auditory function versus saline control, acute cisplatin ototoxicity ([3]; 2.0% solution, single bilateral intratympanic injection one day before cisplatin 12 mg/kg, Day 7 post cisplatin): No significant differences

MDT (mean dissolution time) ([2]; 17% Poloxamer 407 formulation): about 3 h | methylprednisolone peak level in the perilymph [1]: 6.5 µg/mL | perilymph level as fraction of the peak levels ([1]; within 3 days after intratympanic hydrogel): 0.8-1.0%
Compound: C[C@H]1C[C@@H]2[C@H]([C@@H](O)C[C@@]3(C)[C@H]2CC[C@]3(O)C(=O)COC(=O)CCC(=O)[O-])[C@@]2(C)C=CC(=O)C=C12.[Na+] [MPS]
